Where “and” joins values, the source holds several entries; their conditions need not be identical. Identical values can stand only once. Entries after “also recorded” stand apart in the source; their conditions may differ.
Key:
Assay type in all cases: in vivo, Macaca mulatta (Rhesus Macaque)
[1] = test system: rhesus monkeys with spontaneous chronic kidney disease; experiment: Effect on plasma creatinine Cr-P, 8-week administration; conditions: 5 mg/kg (n = 6)
Experimental: (§1) In the trial, animals were brought in three stages. […] Glomerular filtration rate […]: creatinine (Cr-P), urea nitrogen (BUN) and cystatin (CysC) were detected, and the eGFR value was obtained by calculation. It was performed once before the administration and once every two weeks after the administration. […] ELISA kit was used for NT-proBNP test. [table]

[2] = test system: rhesus monkeys with spontaneous chronic kidney disease; experiment: Effect on BUN, 8-week administration
Experimental: as §1

[3] = test system: rhesus monkeys with spontaneous chronic kidney disease; experiment: Effect on blood pressure (SBP, DBP, MBP, HR) after anesthesia, 8-week administration; conditions: for DBP reduced by on average, compared with the baseline / SBP reduced by on average, compared with the baseline: after W8 administration
Source text: In the trial, animals were brought in three stages.
Route of administration: Oral administration.
After anesthesia, the animal was placed in a supine position. The left upper arm was shaved clean, and a suitable size cuff was tied according to the standard. The blood oxygen probe was clamped on the animal's finger or toe (except for the left hand), and the red light-sensitive surface was on the side of the finger pad. The blood pressure of the animal was continuously measured for 3 times in the automatic mode with an interval of 1 min. If the difference of DBP, SBP and MBP of blood pressure measured more than three times was not significant (the difference between the highest value and the lowest value was less than 15 mmHg), the measurement was completed.
Testing equipment: GE B40i electrophysiological monitor.
See Table 16 for the effects of administration of each administration group on blood pressure. The blood pressure test of primates required anesthesia, so it was necessary to control the variability of heart rate at various time points to make statistics.

[4] = 1 mg/kg qd (n = 5), 4 weeks, mean
[5] = 1 mg/kg qd (n = 5), 8 weeks, mean
[6] = 1 mg/kg qd (n=5), p<0.05 vs placebo
[7] = 2 mg/kg qd (n = 5), 4 weeks, mean
[8] = 2 mg/kg qd (n = 5), 8 weeks, mean
[9] = 2 mg/kg qd (n=5), P<0.01 vs placebo
[10] = 5 mg/kg qd (n = 6), 8 weeks, mean
[11] = 5 mg/kg qd (n=6), p<0.01 vs placebo

For `COC(=O)NCCCn1nc([C@@H](C)N(C(=O)[C@H]2CNCCO2)C2CC2)c2ccc(C)nc21.O=C(O)C[C@H](O)C(=O)O` [malate of compound of Formula I], which Cr-P ([1]; 2 weeks) is on record?
Its Cr-P is 0.92 mg/dL and 1.14 mg/dL and 0.88 mg/dL and 1.12 mg/dL and 1.40 mg/dL and 0.96 mg/dL.

What about the Cr-P ([1]; 2 weeks, mean) of the same compound?
Its Cr-P is 1.07 ± 0.19 mg/dL.

What about the Cr-P ([1]; 4 weeks) of the same compound?
The Cr-P was 0.85 mg/dL and 1.26 mg/dL and 0.89 mg/dL and 1.15 mg/dL and 1.13 mg/dL and 1.33 mg/dL.

And the Cr-P ([1]; 4 weeks, mean)?
The Cr-P was 1.10 ± 0.19 mg/dL.

And the Cr-P ([1]; 6 weeks)?
Its Cr-P is 0.87 mg/dL and 1.42 mg/dL and 1.02 mg/dL and 1.06 mg/dL and 1.12 mg/dL and 1.32 mg/dL.

And the Cr-P ([1]; 6 weeks, mean)?
Its Cr-P is 1.14 ± 0.20 mg/dL.

And the Cr-P ([1]; 8 weeks)?
The Cr-P was 0.85 mg/dL and 1.22 mg/dL and 0.95 mg/dL and 1.04 mg/dL and 1.11 mg/dL and 1.18 mg/dL.

What about the Cr-P ([1]; 8 weeks, mean) of the same compound?
Its Cr-P is 1.06 ± 0.14 mg/dL.

What about the Cr-P ([1]; Baseline, single animals and Mean ± SD) of the same compound?
Its Cr-P is 0.90 mg/dL and 1.53 mg/dL and 1.10 mg/dL and 0.99 mg/dL and 1.43 mg/dL and 1.79 mg/dL.

And the Cr-P ([1]; Baseline, single animals and Mean ± SD, mean)?
The Cr-P was 1.29 ± 0.35 mg/dL.

And the BUN ([2]; 1 mg/kg (n = 5), Baseline2, single animals and Mean ± SD)?
The BUN was 35.1 mg/dL and 32.4 mg/dL and 19.3 mg/dL and 39.8 mg/dL and 40.8 mg/dL.

And the BUN ([2]; 1 mg/kg (n = 5), Baseline2, single animals and Mean ± SD, mean)?
The BUN was 33.5 ± 8.6 mg/dL.

And the BUN ([2]; 2 mg/kg (n = 5), 4 weeks)?
The BUN was 42.7 mg/dL and 37.1 mg/dL and 22.9 mg/dL and 41.6 mg/dL and 30.4 mg/dL.

What about the BUN ([2]; 2 mg/kg (n = 5), 4 weeks, mean) of the same compound?
The BUN was 34.9 ± 8.3 mg/dL.

And the BUN ([2]; 2 mg/kg (n = 5), Baseline2, single animals and Mean ± SD)?
The BUN was 37.5 mg/dL and 24.2 mg/dL and 18.7 mg/dL and 42.1 mg/dL and 25.4 mg/dL.

What about the BUN ([2]; 2 mg/kg (n = 5), Baseline2, single animals and Mean ± SD, mean) of the same compound?
Its BUN is 29.6 ± 9.8 mg/dL.

And the BUN ([2]; 5 mg/kg (n = 6), Baseline2, single animals and Mean ± SD)?
The BUN was 18.6 mg/dL and 37.3 mg/dL and 41.3 mg/dL and 77.3 mg/dL and 18.1 mg/dL and 81.2 mg/dL.

And the BUN ([2]; 5 mg/kg (n = 6), Baseline2, single animals and Mean ± SD, mean)?
The BUN was 45.6 ± 27.7 mg/dL.

What about the DBP ([3]; 1 mg/kg qd (n = 5), 4 weeks) of the same compound?
Its DBP is 51 mmHg and 54 mmHg and 65 mmHg.

And the SBP ([3]; 1 mg/kg qd (n = 5), 4 weeks)?
Its SBP is 104 mmHg and 109 mmHg and 124 mmHg.

And the DBP [3, 4]?
Its DBP is 61 ± 12 mmHg.

And the SBP [3, 4]?
The SBP was 118 ± 17 mmHg.

What about the DBP ([3]; 1 mg/kg qd (n = 5), 8 weeks) of the same compound?
Its DBP is 53 mmHg and 49 mmHg.

What about the SBP ([3]; 1 mg/kg qd (n = 5), 8 weeks) of the same compound?
Its SBP is 94 mmHg and 89 mmHg and 114 mmHg.

And the DBP [3, 5]?
The DBP was 60 ± 12 mmHg.

What about the SBP [3, 5] of the same compound?
The SBP was 111 ± 20 mmHg.

What about the DBP ([3]; 1 mg/kg qd (n = 5), Baseline) of the same compound?
Its DBP is 54 mmHg and 56 mmHg and 60 mmHg and 59 mmHg and 70 mmHg.

What about the DBP ([3]; 1 mg/kg qd (n = 5), Baseline, mean) of the same compound?
The DBP was 60 ± 6 mmHg.

And the SBP ([3]; 1 mg/kg qd (n = 5), Baseline, single animals and Mean ± SD)?
Its SBP is 101 mmHg and 105 mmHg and 125 mmHg and 121 mmHg and 129 mmHg.

What about the SBP ([3]; 1 mg/kg qd (n = 5), Baseline, single animals and Mean ± SD, mean) of the same compound?
Its SBP is 116 ± 13 mmHg.

What about the “DBP reduced by on average, compared with the baseline” value (“DBP reduced by on average” below) [3, 6] of the same compound?
Its value is 5±4 mmHg.

What about the “SBP reduced by on average, compared with the baseline” value (“SBP reduced by on average” for short) [3, 6] of the same compound?
Its value is 11±4 mmHg.

And the DBP ([3]; 2 mg/kg qd (n = 5), 4 weeks)?
Its DBP is 55 mmHg and 83 mmHg and 66 mmHg.

What about the SBP ([3]; 2 mg/kg qd (n = 5), 4 weeks) of the same compound?
The SBP was 110 mmHg and 163 mmHg and 138 mmHg.

What about the DBP [3, 7] of the same compound?
The DBP was 71 ± 11 mmHg.

What about the SBP [3, 7] of the same compound?
Its SBP is 140 ± 20 mmHg.

And the DBP ([3]; 2 mg/kg qd (n = 5), 8 weeks)?
The DBP was 52 mmHg and 70 mmHg and 62 mmHg and 73 mmHg.

And the SBP ([3]; 2 mg/kg qd (n = 5), 8 weeks)?
Its SBP is 102 mmHg and 160 mmHg and 121 mmHg and 133 mmHg.

And the DBP [3, 8]?
Its DBP is 64 ± 8 mmHg.

What about the SBP [3, 8] of the same compound?
Its SBP is 128 ± 21 mmHg.

And the DBP ([3]; 2 mg/kg qd (n = 5), Baseline)?
The DBP was 58 mmHg and 56 mmHg and 78 mmHg and 83 mmHg and 74 mmHg.

And the DBP ([3]; 2 mg/kg qd (n = 5), Baseline, mean)?
The DBP was 70 ± 12 mmHg.

And the SBP ([3]; 2 mg/kg qd (n = 5), Baseline, single animals and Mean ± SD)?
The SBP was 126 mmHg and 111 mmHg and 184 mmHg and 143 mmHg and 137 mmHg.

And the SBP ([3]; 2 mg/kg qd (n = 5), Baseline, single animals and Mean ± SD, mean)?
The SBP was 140 ± 27 mmHg.

What about the “DBP reduced by on average” value [3, 9] of the same compound?
The value was 9±8 mmHg.

And the “SBP reduced by on average” value [3, 9]?
Its value is 19±9 mmHg.

And the SBP ([3]; 5 mg/kg qd (n = 6), 4 weeks)?
The SBP was 136 mmHg and 124 mmHg and 159 mmHg and 144 mmHg and 139 mmHg.

And the SBP ([3]; 5 mg/kg qd (n = 6), 4 weeks, mean)?
Its SBP is 138 ± 12 mmHg.

What about the DBP ([3]; 5 mg/kg qd (n = 6), 8 weeks) of the same compound?
Its DBP is 57 mmHg and 97 mmHg and 60 mmHg and 59 mmHg.

And the SBP ([3]; 5 mg/kg qd (n = 6), 8 weeks)?
The SBP was 114 mmHg and 161 mmHg and 121 mmHg and 128 mmHg.

And the DBP [3, 10]?
The DBP was 66 ± 15 mmHg.

What about the SBP [3, 10] of the same compound?
Its SBP is 129 ± 16 mmHg.

And the DBP ([3]; 5 mg/kg qd (n = 6), Baseline)?
The DBP was 63 mmHg and 105 mmHg and 74 mmHg and 97 mmHg and 70 mmHg and 71 mmHg.

And the DBP ([3]; 5 mg/kg qd (n = 6), Baseline, mean)?
Its DBP is 80 ± 17 mmHg.

And the SBP ([3]; 5 mg/kg qd (n = 6), Baseline, single animals and Mean ± SD)?
Its SBP is 132 mmHg and 159 mmHg and 127 mmHg and 180 mmHg and 154 mmHg and 149 mmHg.

What about the SBP ([3]; 5 mg/kg qd (n = 6), Baseline, single animals and Mean ± SD, mean) of the same compound?
Its SBP is 150 ± 19 mmHg.

And the “DBP reduced by on average” value [3, 11]?
Its value is 10±7 mmHg.

And the “SBP reduced by on average” value [3, 11]?
Its value is 21±8 mmHg.

What about the “activity of lowering blood pressure” value ([3]; 1-5 mg/kg qd for 8 weeks) of the same compound?
The value was “showed the activity of lowering the blood pressure; also recorded: the activity of lowering blood pressure was shown”.
